Measurements from ChEMBL document CHEMBL1201862, “PubChem BioAssay data set” (2004).
Calls of active or inactive are those of the source.

What was measured:
[1] = target: Glucose-6-phosphate 1-dehydrogenase (Homo sapiens, UniProt P11413); assay: human G6PD enzyme inhibitors, dose response, selectivity assay for P. falciparum G6PD inhibitor project, biochemical, fluorescence (AID 504792); format: functional
[2] = target: Cytochrome P450 2C19 (Homo sapiens, UniProt P33261); assay: Cytochrome panel assay with activity outcomes. Panel member name: p450-cyp2c19 Compounds with AC50 equal or less than 10 uM are considered active; format: functional
[3] = target: Cytochrome P450 2D6 (Homo sapiens, UniProt P10635);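 also: CYP2D6 member of a cytochrome P450 panel assay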
[4] = target: T1, Cytochrome P450 3A4 (Homo sapiens, UniProt P08684);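 also: CYP3A4 tested as one member of a cytochrome P450 panel screen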
[5] = target: Beta-lactamase (Pseudomonas aeruginosa, UniProt Q79MP6);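 also: biochemical dose-response test of metallo-beta-lactamase enzyme inhibition, read out by epi-absorbance; purified recombinant IMP-1 metallo-beta-lactamase with nitrocefin as substrate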
[6] = target: Beta-lactamase (Salmonella choleraesuis (strain SC-B67), UniProt Q5J463)
[7] = system: HeLa; assay: HeLa cell cytotoxicity, dose response, cytotoxicity control, 24 h, cherry-picked samples (AID 504726); format: functional, cell-based; conditions: Homo sapiens;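 also: potency for cytotoxicity as loss of luminescence signal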
[8] = target: ORF 73 (Human herpesvirus 8, UniProt O40947); assay: inhibitors of C-LANA binding to LBS DNA, dose response, biochemical, fluorescence polarization, cherry-picked samples (AID 504725); parameters: species or system Human gammaherpesvirus 8;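 also: fluorescence polarization of a labeled DNA duplex reporting LANA DNA binding; potency is for inhibitors that block LANA binding to the DNA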
[9] = target: UDP-galactopyranose mutase (Mycobacterium tuberculosis, UniProt P9WIQ1); assay: Inhibitors of Mycobacterium tuberculosis UDP-galactopyranose mutase (UGM) enzyme Measured in Biochemical System Using Plate Reader - 2105-02_Inhibitor_Dose_CherryPick_Activity. [Related pubchem assays (depositor defined):AID504439]
[10] = system: Escherichia coli; assay: microbe, parasite or virus in culture
[11] = target: T2, Estrogen receptor (Homo sapiens, UniProt P03372);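 also: potency for inhibiting coactivator peptide recruitment to the receptor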
T2 sequence (P03372 whole entry): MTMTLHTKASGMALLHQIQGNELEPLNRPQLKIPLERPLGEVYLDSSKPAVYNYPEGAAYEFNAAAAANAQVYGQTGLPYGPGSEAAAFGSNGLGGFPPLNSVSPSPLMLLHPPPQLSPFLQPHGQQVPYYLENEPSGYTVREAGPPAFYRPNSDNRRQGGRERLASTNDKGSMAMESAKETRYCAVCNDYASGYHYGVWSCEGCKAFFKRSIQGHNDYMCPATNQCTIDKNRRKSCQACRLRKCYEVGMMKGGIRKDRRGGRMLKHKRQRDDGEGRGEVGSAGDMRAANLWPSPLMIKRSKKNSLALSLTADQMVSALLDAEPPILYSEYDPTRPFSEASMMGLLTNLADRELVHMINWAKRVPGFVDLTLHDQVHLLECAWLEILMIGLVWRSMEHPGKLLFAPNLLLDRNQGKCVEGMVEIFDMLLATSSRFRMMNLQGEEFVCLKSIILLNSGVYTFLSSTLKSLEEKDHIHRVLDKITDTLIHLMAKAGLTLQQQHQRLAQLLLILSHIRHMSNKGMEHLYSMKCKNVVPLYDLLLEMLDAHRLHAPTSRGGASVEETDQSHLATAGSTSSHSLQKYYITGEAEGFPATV

[12] = target: Estrogen receptor beta (Homo sapiens, UniProt Q92731); assay: ERβ–SRC-3 coactivator interaction inhibitors, confirmation, orthogonal assay, biochemical, ELISA, streptavidin-HRP readout (AID 1060)
[13] = target: Induced myeloid leukemia cell differentiation protein Mcl-1 (Homo sapiens, UniProt Q07820); format: functional
[14] = target: DNA dC->dU-editing enzyme APOBEC-3A (Homo sapiens, UniProt P31941); assay: Dose Response confirmation of small molecule APOBEC3A DNA Deaminase Inhibitors via a fluorescence-based single-stranded DNA deaminase assay. [Related pubchem assays (depositor defined):AID493011, AID493024]; format: functional
[15] = target: DNA dC->dU-editing enzyme APOBEC-3G (Homo sapiens, UniProt Q9HC16); format: functional;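 also: Dose-response counterscreen measuring inhibition of APOBEC3G DNA deaminase activity, run while confirming APOBEC3A inhibitors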
[16] = target: T3, Carboxy-terminal domain RNA polymerase II polypeptide A small phosphatase 1 (Homo sapiens, UniProt Q9GZU7); assay: inhibitors of CTDSP1, concentration-response testing, biochemical assay, absorbance-based, actives from ultra-high-throughput screening (AID 540297); format: functional
T3 sequence (Q9GZU7 whole entry): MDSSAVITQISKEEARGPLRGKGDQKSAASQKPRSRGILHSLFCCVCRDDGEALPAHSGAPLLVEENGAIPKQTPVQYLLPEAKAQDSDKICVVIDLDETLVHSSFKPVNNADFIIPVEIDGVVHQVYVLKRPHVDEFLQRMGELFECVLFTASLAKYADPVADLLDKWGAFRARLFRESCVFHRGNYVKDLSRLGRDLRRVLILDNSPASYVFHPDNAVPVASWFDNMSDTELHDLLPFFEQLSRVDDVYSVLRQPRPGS

[17] = target: T4, Cytochrome P450 1A2 (Homo sapiens, UniProt P05177);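 also: PubChem cytochrome P450 panel assay, CYP1A2 panel member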
T4 sequence (P05177 whole entry): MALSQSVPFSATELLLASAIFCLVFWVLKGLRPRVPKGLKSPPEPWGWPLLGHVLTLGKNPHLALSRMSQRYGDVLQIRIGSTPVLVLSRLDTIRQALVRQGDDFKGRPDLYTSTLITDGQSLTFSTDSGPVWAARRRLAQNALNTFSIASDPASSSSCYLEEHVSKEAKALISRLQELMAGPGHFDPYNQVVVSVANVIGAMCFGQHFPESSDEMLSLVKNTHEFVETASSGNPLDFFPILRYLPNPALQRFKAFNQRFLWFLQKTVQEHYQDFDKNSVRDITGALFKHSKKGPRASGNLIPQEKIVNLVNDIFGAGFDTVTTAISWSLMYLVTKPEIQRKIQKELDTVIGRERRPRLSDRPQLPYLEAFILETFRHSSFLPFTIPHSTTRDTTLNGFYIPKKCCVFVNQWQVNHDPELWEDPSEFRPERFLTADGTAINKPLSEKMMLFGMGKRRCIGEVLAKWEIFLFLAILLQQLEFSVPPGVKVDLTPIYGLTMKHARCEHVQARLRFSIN

[18] = target: T1, Cytochrome P450 3A4; remark: listed apart in the source
[19] = target: T5, Mannose-6-phosphate isomerase (Homo sapiens, UniProt P34949); assay: human PMI inhibitors, high substrate, primary screen, biochemical, fluorescence intensity, high mannose 6-phosphate (AID 1220)
T5 sequence (P34949 whole entry): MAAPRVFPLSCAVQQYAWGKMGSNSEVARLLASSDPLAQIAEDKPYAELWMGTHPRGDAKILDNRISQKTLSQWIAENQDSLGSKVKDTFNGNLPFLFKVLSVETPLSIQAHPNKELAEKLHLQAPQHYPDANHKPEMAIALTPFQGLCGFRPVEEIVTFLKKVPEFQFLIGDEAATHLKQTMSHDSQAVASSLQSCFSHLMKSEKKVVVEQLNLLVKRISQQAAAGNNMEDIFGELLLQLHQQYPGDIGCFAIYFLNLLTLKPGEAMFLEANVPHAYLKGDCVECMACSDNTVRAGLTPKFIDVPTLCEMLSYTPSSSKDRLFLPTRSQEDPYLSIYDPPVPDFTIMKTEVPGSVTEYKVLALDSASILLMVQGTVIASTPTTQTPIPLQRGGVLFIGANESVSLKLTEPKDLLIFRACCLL

[20] = target: T6, Type-1 angiotensin II receptor (Homo sapiens, UniProt P30556); assay: AT1 receptor agonists, dose response, selectivity assay for APJ receptor agonist project, cell-based, uHTS hits (AID 488865); format: functional;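 also: beta-arrestin recruitment to AT1 measured by enzyme fragment complementation luminescence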
T6 sequence (P30556 whole entry): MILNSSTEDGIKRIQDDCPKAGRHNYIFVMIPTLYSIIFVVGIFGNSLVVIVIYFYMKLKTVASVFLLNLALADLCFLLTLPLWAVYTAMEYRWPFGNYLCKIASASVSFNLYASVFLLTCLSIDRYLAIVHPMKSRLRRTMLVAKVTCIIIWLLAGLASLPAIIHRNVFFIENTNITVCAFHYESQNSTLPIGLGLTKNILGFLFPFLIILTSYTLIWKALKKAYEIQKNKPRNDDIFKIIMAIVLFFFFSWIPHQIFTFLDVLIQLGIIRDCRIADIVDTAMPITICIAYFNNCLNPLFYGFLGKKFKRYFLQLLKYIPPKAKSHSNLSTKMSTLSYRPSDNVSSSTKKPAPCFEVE

[21] = target: T5, Mannose-6-phosphate isomerase; assay: PMI enzyme inhibitors, confirmation, biochemical, fluorescence intensity (AID 1535)
[22] = system: A-375; assay: MITF: Counter assay: A375 proliferation Measured in Cell-Based System Using Plate Reader - 2084-03_Inhibitor_Dose_DryPowder_Activity. [Related pubchem assays (depositor defined):AID488944]; format: functional; conditions: Homo sapiens
[23] = system: A-375; assay: A375 melanoma cell viability reduction, dose response, counter-screen for MITF modulator project, cherry-pick samples, set 2 (AID 540335); format: functional, cell-based; conditions: Homo sapiens
[24] = target: T7, Corticotropin-releasing factor receptor 2/Corticotropin-releasing factor-binding protein (Homo sapiens, UniProt P24387+Q13324); assay: activators of CRF receptor 2 with binding protein – uHTS hits, confirmation (AID 602473); format: functional; conditions: read-out: EC50_Mean
T7 sequence (Q13324 whole entry): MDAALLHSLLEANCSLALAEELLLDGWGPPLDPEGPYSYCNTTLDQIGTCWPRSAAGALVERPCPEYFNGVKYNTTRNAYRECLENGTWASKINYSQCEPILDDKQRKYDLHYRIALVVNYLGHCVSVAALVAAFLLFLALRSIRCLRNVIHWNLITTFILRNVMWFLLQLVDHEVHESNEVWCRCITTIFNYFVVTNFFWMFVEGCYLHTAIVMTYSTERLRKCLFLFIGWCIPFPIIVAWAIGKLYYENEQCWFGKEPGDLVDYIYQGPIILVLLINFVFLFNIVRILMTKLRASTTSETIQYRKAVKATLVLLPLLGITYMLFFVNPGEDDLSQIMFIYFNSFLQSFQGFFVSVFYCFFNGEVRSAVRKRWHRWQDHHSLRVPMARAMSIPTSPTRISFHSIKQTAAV
T7 sequence (P24387 whole entry): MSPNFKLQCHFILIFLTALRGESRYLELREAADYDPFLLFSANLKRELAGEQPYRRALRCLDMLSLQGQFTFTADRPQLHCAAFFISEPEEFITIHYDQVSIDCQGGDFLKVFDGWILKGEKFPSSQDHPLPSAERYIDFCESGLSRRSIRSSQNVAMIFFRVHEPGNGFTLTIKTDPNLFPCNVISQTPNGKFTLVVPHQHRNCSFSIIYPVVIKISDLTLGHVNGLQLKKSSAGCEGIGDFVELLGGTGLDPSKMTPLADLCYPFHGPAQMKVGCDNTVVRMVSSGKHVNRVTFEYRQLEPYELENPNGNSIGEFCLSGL

[25] = P. falciparum late gametocyte killing, dose response, luminescence (AID 1117278); format: functional, cell-based;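 also: gametocytes exposed to compound for 24 hours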
[26] = Jurkat T cell cytotoxicity, dose response, cytotoxicity control for P. falciparum gametocyte viability project, luminescence (AID 1117277); format: functional, cell-based;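 also: potency reflects loss of cellular ATP meaning fewer viable cells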
[27] = system: HeLa; assay: HeLa cell cytotoxicity, dose response, cytotoxicity control for MITF activator project, CellTiter-Glo luminescence, cherry-pick samples (AID 540259); format: functional, cell-based; conditions: Homo sapiens

Chain of Glucose-6-phosphate 1-dehydrogenase (P11413 whole entry): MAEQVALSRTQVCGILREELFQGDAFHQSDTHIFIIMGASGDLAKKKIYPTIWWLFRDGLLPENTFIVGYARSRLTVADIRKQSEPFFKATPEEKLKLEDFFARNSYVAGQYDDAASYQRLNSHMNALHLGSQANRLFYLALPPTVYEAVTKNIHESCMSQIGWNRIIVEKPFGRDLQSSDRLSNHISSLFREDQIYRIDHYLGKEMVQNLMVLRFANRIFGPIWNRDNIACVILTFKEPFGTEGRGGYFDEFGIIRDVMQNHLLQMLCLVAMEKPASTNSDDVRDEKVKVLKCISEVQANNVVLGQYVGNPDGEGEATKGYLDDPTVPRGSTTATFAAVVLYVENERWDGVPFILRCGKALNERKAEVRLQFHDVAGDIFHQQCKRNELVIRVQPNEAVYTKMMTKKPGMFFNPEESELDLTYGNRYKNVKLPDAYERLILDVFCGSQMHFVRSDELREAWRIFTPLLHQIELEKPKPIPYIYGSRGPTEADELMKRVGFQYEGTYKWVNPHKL
Chain of UDP-galactopyranose mutase (P9WIQ1 whole entry): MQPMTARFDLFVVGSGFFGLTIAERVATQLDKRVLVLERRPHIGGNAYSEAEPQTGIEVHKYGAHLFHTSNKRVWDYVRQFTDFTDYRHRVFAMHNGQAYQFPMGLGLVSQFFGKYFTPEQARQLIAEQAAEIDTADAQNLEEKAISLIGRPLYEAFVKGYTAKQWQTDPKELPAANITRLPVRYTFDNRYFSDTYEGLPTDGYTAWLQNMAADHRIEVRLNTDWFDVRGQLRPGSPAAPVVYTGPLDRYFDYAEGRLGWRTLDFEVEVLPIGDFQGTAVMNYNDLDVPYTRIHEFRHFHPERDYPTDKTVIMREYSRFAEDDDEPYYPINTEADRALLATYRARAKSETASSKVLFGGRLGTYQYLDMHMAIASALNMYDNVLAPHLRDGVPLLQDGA
T1 sequence (P08684 whole entry): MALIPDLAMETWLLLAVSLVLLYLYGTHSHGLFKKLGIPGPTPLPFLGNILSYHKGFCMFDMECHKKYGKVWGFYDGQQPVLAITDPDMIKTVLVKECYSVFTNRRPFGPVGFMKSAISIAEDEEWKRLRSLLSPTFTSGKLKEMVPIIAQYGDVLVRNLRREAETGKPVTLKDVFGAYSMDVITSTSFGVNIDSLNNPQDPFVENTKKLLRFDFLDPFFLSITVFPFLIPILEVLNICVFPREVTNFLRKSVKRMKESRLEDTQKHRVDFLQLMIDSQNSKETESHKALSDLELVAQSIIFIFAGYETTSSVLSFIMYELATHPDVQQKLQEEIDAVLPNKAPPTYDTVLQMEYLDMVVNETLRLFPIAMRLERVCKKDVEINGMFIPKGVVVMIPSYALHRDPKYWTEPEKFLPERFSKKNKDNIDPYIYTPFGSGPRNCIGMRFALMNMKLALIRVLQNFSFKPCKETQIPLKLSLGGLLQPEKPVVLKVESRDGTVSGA
Chain of Cytochrome P450 2D6 (P10635 whole entry): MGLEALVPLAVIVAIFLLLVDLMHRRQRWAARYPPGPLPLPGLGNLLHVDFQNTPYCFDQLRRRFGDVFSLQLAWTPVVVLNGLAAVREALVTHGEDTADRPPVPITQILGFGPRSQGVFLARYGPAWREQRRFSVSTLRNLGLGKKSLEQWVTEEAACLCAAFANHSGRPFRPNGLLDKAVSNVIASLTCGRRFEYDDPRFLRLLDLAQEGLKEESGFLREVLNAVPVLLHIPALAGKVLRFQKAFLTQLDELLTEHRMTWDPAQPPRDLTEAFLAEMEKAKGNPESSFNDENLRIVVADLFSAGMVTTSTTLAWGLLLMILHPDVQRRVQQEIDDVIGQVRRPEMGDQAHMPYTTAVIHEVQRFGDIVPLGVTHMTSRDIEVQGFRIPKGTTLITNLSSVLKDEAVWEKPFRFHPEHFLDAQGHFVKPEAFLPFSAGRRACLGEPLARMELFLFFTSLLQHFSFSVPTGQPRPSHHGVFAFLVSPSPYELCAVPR
Chain of Induced myeloid leukemia cell differentiation protein Mcl-1 (Q07820 whole entry): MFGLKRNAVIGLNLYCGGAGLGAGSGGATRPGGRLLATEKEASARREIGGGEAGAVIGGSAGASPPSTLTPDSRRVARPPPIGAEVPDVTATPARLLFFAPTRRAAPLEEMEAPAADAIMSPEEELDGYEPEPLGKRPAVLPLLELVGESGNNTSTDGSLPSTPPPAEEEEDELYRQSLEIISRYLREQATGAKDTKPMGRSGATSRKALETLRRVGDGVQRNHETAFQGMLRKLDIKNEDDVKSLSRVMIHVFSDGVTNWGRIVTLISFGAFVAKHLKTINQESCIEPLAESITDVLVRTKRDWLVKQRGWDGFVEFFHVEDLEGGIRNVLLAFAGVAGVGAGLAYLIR
Chain of Beta-lactamase (Salmonella choleraesuis (strain SC-B67), UniProt Q5J463) (Q5J463 whole entry): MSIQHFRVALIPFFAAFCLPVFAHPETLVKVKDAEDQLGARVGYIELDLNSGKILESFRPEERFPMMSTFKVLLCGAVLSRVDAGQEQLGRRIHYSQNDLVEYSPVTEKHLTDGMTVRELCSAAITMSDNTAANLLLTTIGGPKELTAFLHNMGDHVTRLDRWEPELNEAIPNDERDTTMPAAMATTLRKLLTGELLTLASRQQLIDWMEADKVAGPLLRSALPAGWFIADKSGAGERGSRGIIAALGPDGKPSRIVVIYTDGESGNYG
Chain of DNA dC->dU-editing enzyme APOBEC-3A (P31941 whole entry): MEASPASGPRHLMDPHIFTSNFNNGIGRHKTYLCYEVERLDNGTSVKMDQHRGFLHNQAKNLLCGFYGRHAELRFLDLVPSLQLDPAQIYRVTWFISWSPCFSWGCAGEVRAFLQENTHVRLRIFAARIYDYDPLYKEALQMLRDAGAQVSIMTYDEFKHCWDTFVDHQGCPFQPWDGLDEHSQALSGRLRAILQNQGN
Chain of DNA dC->dU-editing enzyme APOBEC-3G (Q9HC16 whole entry, the tested form may be a part): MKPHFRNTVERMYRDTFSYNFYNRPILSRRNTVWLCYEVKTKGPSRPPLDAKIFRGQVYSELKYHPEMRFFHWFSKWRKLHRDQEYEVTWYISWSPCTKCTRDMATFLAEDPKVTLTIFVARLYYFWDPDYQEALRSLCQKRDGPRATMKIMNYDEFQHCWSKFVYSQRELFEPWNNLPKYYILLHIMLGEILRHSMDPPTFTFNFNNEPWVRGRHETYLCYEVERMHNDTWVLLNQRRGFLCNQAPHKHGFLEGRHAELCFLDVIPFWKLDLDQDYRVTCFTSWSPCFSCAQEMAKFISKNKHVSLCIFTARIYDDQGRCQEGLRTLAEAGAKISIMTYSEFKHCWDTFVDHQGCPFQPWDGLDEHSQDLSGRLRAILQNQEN
Chain of Cytochrome P450 2C19 (P33261 whole entry): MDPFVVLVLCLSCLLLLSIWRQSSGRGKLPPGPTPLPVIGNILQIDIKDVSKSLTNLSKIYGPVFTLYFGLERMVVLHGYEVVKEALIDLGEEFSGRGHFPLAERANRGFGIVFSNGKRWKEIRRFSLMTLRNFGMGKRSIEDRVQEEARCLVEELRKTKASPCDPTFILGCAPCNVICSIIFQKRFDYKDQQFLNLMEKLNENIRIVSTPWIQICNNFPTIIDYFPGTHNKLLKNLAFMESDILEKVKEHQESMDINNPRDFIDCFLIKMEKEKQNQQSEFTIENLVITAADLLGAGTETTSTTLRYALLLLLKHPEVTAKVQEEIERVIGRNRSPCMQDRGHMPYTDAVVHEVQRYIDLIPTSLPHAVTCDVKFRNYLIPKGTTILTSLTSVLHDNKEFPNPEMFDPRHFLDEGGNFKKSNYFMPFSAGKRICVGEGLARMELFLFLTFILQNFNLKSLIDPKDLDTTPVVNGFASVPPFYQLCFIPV
Chain of Beta-lactamase (Pseudomonas aeruginosa, UniProt Q79MP6) (Q79MP6 whole entry): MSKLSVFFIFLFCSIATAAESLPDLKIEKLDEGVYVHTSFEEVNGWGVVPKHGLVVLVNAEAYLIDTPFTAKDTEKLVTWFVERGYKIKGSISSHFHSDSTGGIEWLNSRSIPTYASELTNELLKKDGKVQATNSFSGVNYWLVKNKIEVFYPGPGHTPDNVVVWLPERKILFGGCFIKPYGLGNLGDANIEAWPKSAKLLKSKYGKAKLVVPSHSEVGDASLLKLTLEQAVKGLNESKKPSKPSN
Chain of ORF 73 (O40947 whole entry): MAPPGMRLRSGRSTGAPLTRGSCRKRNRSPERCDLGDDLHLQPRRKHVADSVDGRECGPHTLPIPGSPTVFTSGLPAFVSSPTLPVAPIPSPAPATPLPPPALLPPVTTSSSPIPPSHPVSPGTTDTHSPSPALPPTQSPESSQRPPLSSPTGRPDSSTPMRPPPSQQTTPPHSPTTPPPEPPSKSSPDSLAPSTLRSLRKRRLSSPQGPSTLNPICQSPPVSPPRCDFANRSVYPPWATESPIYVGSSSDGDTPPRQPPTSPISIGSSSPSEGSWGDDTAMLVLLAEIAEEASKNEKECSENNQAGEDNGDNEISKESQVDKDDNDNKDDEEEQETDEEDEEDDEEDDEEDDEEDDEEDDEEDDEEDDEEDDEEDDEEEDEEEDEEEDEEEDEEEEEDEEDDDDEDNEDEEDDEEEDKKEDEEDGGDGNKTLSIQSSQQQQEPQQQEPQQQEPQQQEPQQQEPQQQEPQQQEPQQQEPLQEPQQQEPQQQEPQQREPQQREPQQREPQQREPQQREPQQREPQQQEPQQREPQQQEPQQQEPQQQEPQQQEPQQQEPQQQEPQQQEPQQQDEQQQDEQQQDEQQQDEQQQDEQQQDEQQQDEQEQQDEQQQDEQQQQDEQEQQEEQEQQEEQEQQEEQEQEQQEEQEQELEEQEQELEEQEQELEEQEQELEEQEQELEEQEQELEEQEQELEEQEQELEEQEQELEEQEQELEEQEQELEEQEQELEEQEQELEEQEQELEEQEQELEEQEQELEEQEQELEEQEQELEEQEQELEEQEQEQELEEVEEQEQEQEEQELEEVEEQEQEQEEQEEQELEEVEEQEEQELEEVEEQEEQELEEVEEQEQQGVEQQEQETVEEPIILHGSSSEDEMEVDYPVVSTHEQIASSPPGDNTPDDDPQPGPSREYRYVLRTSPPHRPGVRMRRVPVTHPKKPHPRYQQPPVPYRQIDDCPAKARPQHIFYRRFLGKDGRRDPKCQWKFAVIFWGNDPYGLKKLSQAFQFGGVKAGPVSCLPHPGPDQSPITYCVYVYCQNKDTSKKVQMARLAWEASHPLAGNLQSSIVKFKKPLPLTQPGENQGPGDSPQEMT

Structure (SMILES): Cc1ccc(-c2nn(C)c(=O)c3ccccc23)cc1CNC(=O)/C=C/c1ccccc1
- IC50 [1]: 49.5 µM (inactive)

Structure (SMILES): C=C(C)CNCC(=C)C.Oc1c(Cl)c(Cl)c(Cl)c(Cl)c1Cl
- AC50 [2]: inconclusive
- AC50 [3]: inactive
- AC50 [4]: inactive

Structure (SMILES): Cc1nn(C)c(C)c1N1C(=O)c2cccc3c(N)ccc(c23)C1=O
- IC50 [5]: 9.3 µM (active)
- IC50 [6]: 5.25 µM (active)
- AC50 [7]: 264 µM (active)
- AC50 [8]: 0.81 µM (active)
- AC50 [9]: 1.39 µM (active)

Structure (SMILES): COc1c2ccoc2nc2c(OC)c(OC[C@@H](O)C(C)(C)O)ccc12
- AC50 [10]: 54.2 µM (active)

Structure (SMILES): O=C(Cc1ccc(S(=O)(=O)N2CCOCC2)s1)Nc1nc2c(s1)CCCC2
- IC50 [11]: 4.69 µM (active)
- IC50 [12]: 5.27 µM (not active)
- IC50 [13]: 4.44 µM (active)
- IC50 [14]: 10.5 µM (active)
- IC50 [15]: 33.7 µM (active)
- IC50 [16]: 3.2 µM (active)
- AC50 [17]: 28.2 µM (inconclusive)
- AC50 [18]: 14.1 µM (inconclusive)

Structure (SMILES): C=CCSc1nc2sc3c(c2c(=O)n1CC)CCc1ccccc1-3
- IC50 [19]: 13.5 µM (active)
- IC50 [1]: > 80 µM (inactive)

Structure (SMILES): CC(=O)O.CN1CCN(CN2C(=O)C3C4C=CC(C3C2=O)C2C3C(=O)N(CN5CCN(C)CC5)C(=O)C3C42)CC1 (configuration not stated)
- AC50 [3]: inconclusive

Structure (SMILES): COc1ccccc1-n1c(O)cc(=O)nc1SC
- EC50 [20]: > 100 µM (inactive)

Structure (SMILES): CCOC(=O)c1nnc(/N=c2\ssnc2Cl)o1
- IC50 [21]: 32.5 µM (active)

Structure (SMILES): Cc1ccc(NC(=O)Nc2ccccc2)nc1
- AC50 [22]: > 35 µM (active)
- AC50 [23]: > 35 µM (active)

Structure (SMILES): O=C(NCc1ccc(OC(F)(F)F)cc1)c1cccc2c1C(=O)c1ccc(N3CCCCC3)cc1S2(=O)=O
- AC50 [9]: 7.54 µM (active)
- EC50 [24]: 6.58 µM (active)
- IC50 [25]: > 109 µM (inactive)
- IC50 [26]: > 83.3 µM (inactive)

Structure (SMILES): COc1ccccc1N1CCN(/N=C/c2cccc(Cl)c2)CC1
- AC50 [22]: > 35 µM (active)
- AC50 [27]: 161 µM (active)
- AC50 [23]: > 35 µM (active)
